Consider 18 compounds from patent US12421211B2, “Heterocyclic compounds” (Hoffmann-La Roche Inc., priority 2021, dated 2025).

Molecules are shown by their SMILES. Structures can show the parent of a compound that is named as a salt.

Broadly, the IC90 is the concentration at which the effect reaches the 90% level.

One assay deals with Acinetobacter baumannii ATCC17961. Nature of the assay: Antimicrobial susceptibility testing: 90% growth inhibitory concentration (IC90) determination. The settings on record: Acinetobacter baumannii, ATCC17961, 16 h, 90% growth inhibitory concentration, Acinetobacter baumannii ATCC17961, Iso-Sensitest broth, OD 600 nm over 16 h; read-out: ATCC 17961 IC90. The format is cell-based. In a few lines: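 Growth inhibition derived in log phase from OD600 kinetics (every 20 minutes, 16h, 35±2° C) of ATCC17961 in Iso-Sensitest medium, inoculum ~5×10^5 CFU/ml. Compounds tested as twofold series, 10 points (e.g. 50 to 0.097 μM final); IC90 and IC50 reported.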
On to `COCCn1ncc(-c2ccc(-c3cnc(C(=O)Nc4ccc(C(=O)N5CCN(C(=O)C6CC[N+](C)(C)CC6)CC5)c(Cl)c4)n3C)c(Cl)c2F)c1C` [Example F2, N-[3-chloro-4-[4-(1,1-dimethylpiperidin-1-ium-4-carbonyl)piperazine-1-carbonyl]phenyl]-5-[2-chloro-3-fluoro-4-[1-(2-methoxyethyl)-5-methyl-pyrazol-4-yl]phenyl]-1-methyl-imidazole-2-carboxamide; formate], for which the IC90 stood at 0.065 µM.

For `COCCn1cc(-c2ccc(-c3cnc(C(=O)Nc4ccc(C(=O)N5CCN(C(=O)[C@@H]6C[C@@H](O)CN6)CC5)c(Cl)c4)n3C)c(F)c2F)c(C)n1` [Example D31, N-[3-chloro-4-[4-[(2S,4R)-4-hydroxypyrrolidine-2-carbonyl]piperazine-1-carbonyl]phenyl]-5-[2,3-difluoro-4-[1-(2-methoxyethyl)-3-methyl-pyrazol-4-yl]phenyl]-1-methyl-imidazole-2-carboxamide; formic acid], the IC90 was determined as 0.22 µM.

With `COCCn1ncc(-c2ccc(-c3cnc(C(=O)Nc4ccc(C(=O)N5CCC(C(=O)N6CC[N+](C)(CC7CNC7)CC6)CC5)c(Cl)c4)n3C)c(F)c2F)c1C` [Example B23, N-[4-[4-[4-(azetidin-3-ylmethyl)-4-methyl-piperazin-4-ium-1-carbonyl]piperidine-1-carbonyl]-3-chloro-phenyl]-5-[2,3-difluoro-4-[1-(2-methoxyethyl)-5-methyl-pyrazol-4-yl]phenyl]-1-methyl-imidazole-2-carboxamide; formate], the IC90 turned out to be 0.098 µM.

Take `COCCn1cc(-c2ccc(-c3cnc(C(=O)Nc4ccc(C(=O)N5CCN(C(=O)C[N+]6(C)C[C@H](OC)[C@@H](N)C6)CC5)c(Cl)c4)n3C)c(F)c2F)c(C)n1` (stereo partly drawn) [Example C5, N-[4-[4-[2-[(3S,4S)-3-amino-4-methoxy-1-methyl-pyrrolidin-1-ium-1-yl]acetyl]piperazine-1-carbonyl]-3-chloro-phenyl]-5-[2,3-difluoro-4-[1-(2-methoxyethyl)-3-methyl-pyrazol-4-yl]phenyl]-1-methyl-imidazole-2-carboxamide; formic acid; formate]: the IC90 turned out to be 0.24 µM.

With `Cc1n[nH]cc1-c1ccc(-c2cnc(C(=O)Nc3ccc(C(=O)N4CCN(C(=O)CN(C)C)CC4)c(Cl)c3)n2C)cc1` [Example E15, N-[3-chloro-4-[4-[2-(dimethylamino)acetyl]piperazine-1-carbonyl]phenyl]-1-methyl-5-[4-(3-methyl-1H-pyrazol-4-yl)phenyl]imidazole-2-carboxamide; formic acid], the IC90 worked out at 0.18 µM.

`COCCn1cc(-c2ccc(-c3cnc(C(=O)Nc4ccc(C(=O)N5CCN(C(=O)C6CC[N+](C)(C)CC6)CC5)c(Cl)c4)n3C)c(F)c2F)c(C(F)(F)F)n1` [Example F36, N-[3-chloro-4-[4-(1,1-dimethylpiperidin-1-ium-4-carbonyl)piperazine-1-carbonyl]phenyl]-5-[2,3-difluoro-4-[1-(2-methoxyethyl)-3-(trifluoromethyl)pyrazol-4-yl]phenyl]-1-methyl-imidazole-2-carboxamide; formate]: the 90% effect concentration (IC90) turned out to be 0.58 µM.

For `COCCn1cc(-c2ccc(-c3cnc(C(=O)Nc4ccc(C(=O)N5CCN(C(=O)C6CC[N+](C)(C)CC6)CC5)c(Cl)c4)n3C)c(F)c2F)c(CO)n1` [Example F25, N-[3-chloro-4-[4-(1,1-dimethylpiperidin-1-ium-4-carbonyl)piperazine-1-carbonyl]phenyl]-5-[2,3-difluoro-4-[3-(hydroxymethyl)-1-(2-methoxyethyl)pyrazol-4-yl]phenyl]-1-methyl-imidazole-2-carboxamide; formate], the IC90 is 1.2 µM.

As to `Cc1nn(-c2ccc(N)cn2)cc1-c1ccc(-c2cnc(C(=O)Nc3ccc(C(=O)N4CCN(C(=O)C5CC[N+](C)(C)CC5)CC4)c(Cl)c3)n2C)c(F)c1F` [Example F40, 5-[4-[1-(5-amino-2-pyridyl)-3-methyl-pyrazol-4-yl]-2,3-difluoro-phenyl]-N-[3-chloro-4-[4-(1,1-dimethylpiperidin-1-ium-4-carbonyl)piperazine-1-carbonyl]phenyl]-1-methyl-imidazole-2-carboxamide; chloride], the IC90 was found to be 0.61 µM.

Turning to `Cc1nn(-c2cn[nH]c2)cc1-c1ccc(-c2cnc(C(=O)Nc3ccc(C(=O)N4CCN(C(=O)C5CC[N+](C)(C)CC5)CC4)c(Cl)c3)n2C)c(F)c1F` [Example F42, N-[3-chloro-4-[4-(1,1-dimethylpiperidin-1-ium-4-carbonyl)piperazine-1-carbonyl]phenyl]-5-[2,3-difluoro-4-[3-methyl-1-(1H-pyrazol-4-yl)pyrazol-4-yl]phenyl]-1-methyl-imidazole-2-carboxamide; formate], the IC90 is 0.21 µM.

Turning to `COCCn1cc(-c2ccc(-c3cnc(C(=O)Nc4ccc(C(=O)N5CCN(C(=O)[C@H]6C[C@H](O)C[N+]6(C)C)CC5)c(Cl)c4)n3C)c(F)c2F)c(C)n1` [Example D8, N-[3-chloro-4-[4-[(2R,4S)-4-hydroxy-1,1-dimethyl-pyrrolidin-1-ium-2-carbonyl]piperazine-1-carbonyl]phenyl]-5-[2,3-difluoro-4-[1-(2-methoxyethyl)-3-methyl-pyrazol-4-yl]phenyl]-1-methyl-imidazole-2-carboxamide; formate], the concentration for an effect of 90% (IC90) turned out to be 0.3 µM.

As to `Cc1nn(CCn2ccccc2=O)cc1-c1ccc(-c2cnc(C(=O)Nc3ccc(C(=O)N4CCN(C(=O)C5CC[N+](C)(C)CC5)CC4)c(Cl)c3)n2C)c(F)c1F` [Example F46, N-[3-chloro-4-[4-(1,1-dimethylpiperidin-1-ium-4-carbonyl)piperazine-1-carbonyl]phenyl]-5-[2,3-difluoro-4-[3-methyl-1-[2-(2-oxo-1-pyridyl)ethyl]pyrazol-4-yl]phenyl]-1-methyl-imidazole-2-carboxamide; formate], the IC90 worked out at 1.1 µM.

For `Cc1nn(CC(=O)Nc2ccc(F)nn2)cc1-c1ccc(-c2cnc(C(=O)Nc3ccc(C(=O)N4CCN(C(=O)C5CC[N+](C)(C)CC5)CC4)c(Cl)c3)n2C)c(F)c1F` [Example G31, N-[3-chloro-4-[4-(1,1-dimethylpiperidin-1-ium-4-carbonyl)piperazine-1-carbonyl]phenyl]-5-[2,3-difluoro-4-[1-[2-[(6-fluoropyridazin-3-yl)amino]-2-oxo-ethyl]-3-methyl-pyrazol-4-yl]phenyl]-1-methyl-imidazole-2-carboxamide; formate], the IC90 was 0.14 µM.

As for `COCCn1nc(C)c(-c2ccc(-c3cnc(C(=O)Nc4ccc(C(=O)N5CCN(C(=O)C6CC[N+](C)(C)CC6)CC5)c(Cl)c4)n3C)cc2)c1C` [Example A3, N-[3-chloro-4-[4-(1,1-dimethylpiperidin-1-ium-4-carbonyl)piperazine-1-carbonyl]phenyl]-5-[4-[1-(2-methoxyethyl)-3,5-dimethyl-pyrazol-4-yl]phenyl]-1-methyl-imidazole-2-carboxamide; formate], the IC90 is 0.23 µM.

For `Cc1n[nH]cc1-c1ccc(-c2cnc(C(=O)Nc3ccc(C(=O)N4CCN(C(=O)C[N+](C)(C)C)CC4)c(Cl)c3)n2C)cc1` [Example F51, [2-[4-[2-chloro-4-[[1-methyl-5-[4-(3-methyl-1H-pyrazol-4-yl)phenyl]imidazole-2-carbonyl]amino]benzoyl]piperazin-1-yl]-2-oxo-ethyl]-trimethyl-ammonium; formate], the concentration for an effect of 90% (IC90) came out at 0.21 µM.

`COCCn1ncc(-c2ccc(-c3cnc(C(=O)Nc4ccc(C(=O)N5CCC(NS(=O)(=O)C6CC[N+](C)(C)CC6)CC5)c(Cl)c4)n3C)c(F)c2F)c1C` [Example D37, N-[3-chloro-4-[4-[(1,1-dimethylpiperidin-1-ium-4-yl)sulfonylamino]piperidine-1-carbonyl]phenyl]-5-[2,3-difluoro-4-[1-(2-methoxyethyl)-5-methyl-pyrazol-4-yl]phenyl]-1-methyl-imidazole-2-carboxamide; formate]: the 90% effect concentration (IC90) was determined as 0.15 µM.

As to `Cc1nn(CC(=O)Nc2ccc(C#N)nc2)cc1-c1ccc(-c2cnc(C(=O)Nc3ccc(C(=O)N4CCN(C(=O)C5CC[N+](C)(C)CC5)CC4)c(Cl)c3)n2C)c(F)c1F` [Example G34, N-[3-chloro-4-[4-(1,1-dimethylpiperidin-1-ium-4-carbonyl)piperazine-1-carbonyl]phenyl]-5-[4-[1-[2-[(6-cyano-3-pyridyl)amino]-2-oxo-ethyl]-3-methyl-pyrazol-4-yl]-2,3-difluoro-phenyl]-1-methyl-imidazole-2-carboxamide; formate], the IC90 stood at 0.068 µM.

Still in this assay, the particulars now being: Acinetobacter baumannii, ATCC17961, 16 h, read-out: ATCC 17961 IC90.
As for `COCCn1cc(-c2ccc(-c3cnc(C(=O)Nc4ccc(C(=O)N5CCN(C(=O)C6CC[N+]7(CC6)CCN(Cc6ccccc6)CC7)CC5)c(Cl)c4)n3C)c(F)c2F)c(C)n1` [Example Q2, N-[4-[4-(3-benzyl-3-aza-6-azoniaspiro[5.5]undecane-9-carbonyl)piperazine-1-carbonyl]-3-chloro-phenyl]-5-[2,3-difluoro-4-[1-(2-methoxyethyl)-3-methyl-pyrazol-4-yl]phenyl]-1-methyl-imidazole-2-carboxamide], the IC90 worked out at 0.705 µM.

With `COCCn1ncc(-c2ccc(-c3cnc(C(=O)Nc4ccc(C(=O)N5CCN(C(=O)C6CC[N+](C)(CC(=O)NN)CC6)CC5)c(Cl)c4)n3C)c(F)c2F)c1C` (stereo not drawn) [Example B17, N-[3-chloro-4-[4-[1-(2-hydrazino-2-oxo-ethyl)-1-methyl-piperidin-1-ium-4-carbonyl]piperazine-1-carbonyl]phenyl]-5-[2,3-difluoro-4-[1-(2-methoxyethyl)-5-methyl-pyrazol-4-yl]phenyl]-1-methyl-imidazole-2-carboxamide; formic acid; formate], the IC90 was found to be 0.26 µM.
